Source: patent US6310037A, “Method of controlling protozoan infections using syringomycin-family lipodepsipeptides” (Utah State University, priority 1999, dated 2001)
Values after ≈ are worked out from the molar mass of the structure shown. Where two headings read alike, the source gives them in different places. Where a SMILES comes first, the peptide text is derived from it. Bridges are numbered along the chain shown (N, C = ends). [ ]: non-standard residue; d: D form. The star is where a group is joined. Asp(3S-OH) = N[C@H](C(=O)O)[C@H](O)C(=O)O; Thr(4-Cl) = N[C@H](C(=O)O)[C@H](O)CCl; X1 = CCCCCCCCC[C@@H](O)CC(=O)*; dDab = NCC[C@@H](N)C(=O)O; Dab = NCC[C@H](N)C(=O)O; Dhb = C/C=C(\N)C(=O)O

Experiments:
C. parvum [1] = assay: C. parvum development in BFTE cell culture at pH 6.3; type: cell-based, C. parvum (bovine isolate); settings: BFTE cells, pH 6.3, day 2 post inoculation
Method: C. parvum (bovine isolate) oocysts used in this study were originally donated by the U.S. Department of Agriculture, Ames, Iowa. The oocysts were isolated from calf manure, preserved in 2.5% potassium dichromate at 4° C., and used within 3 months of purification. Oocysts were decontaminated by suspension in 20% (vol/vol) 1.05% sodium hypochlorite on ice for 20 minutes. Oocysts were then washed three times in Hanks' balanced salt solution ("HBSS") and once in RPMI 1640 (available from Sigma, St. Louis, Mo.). Release of sporozoites was achieved by incubating oocysts in an excystation solution consisting of 0.25% (wt/vol) trypsin (available from Sigma, St. Louis, Mo.) and 0.75% (wt/vol) taurodeoxycholic acid (available from Sigma) in HBSS. The resulting suspension was incubated at 37° C. for 45 minutes and microscopically observed to confirm sporozoite release. Sporozoites were completely separated from intact oocysts and oocyst walls by passage through sterile polycarbonate filters (3 micron pore size, available from Millipore Corp., Bedford, Mass.) twice prior to inoculation of bovine fallopian tube epithelial ("BFTE") cell monolayers.
Primary BFTE cell cultures were prepared from bovine fallopian tubes (FT). […]
The inhibitory effect of Syr-E on C. parvum development was monitored in BFTE cell culture at pH 6.3. […]

L. donovani = type: cell-based; settings: pH 5.5, 72 hours
Method: L. donovani parasites (WHO designation: MHOM/SD/62/1S-CL2D) used in this study were originally donated by the National Institutes of Health. These parasites were maintained as axenic amastigote-like forms by serial passage at 37°C. in a humid atmosphere containing 5% CO2 using a slightly modified version of the medium described by Joshi et al., Cloning and characterization of differentially expressed genes from in vitro-grown `amastigotes` of Leishmania donovani. Molecular and Biochemical Parasitology, 1993. 58: p. 345-354, the contents of which are incorporated herein by this reference.
L. donovani amastigote-like forms were seeded at 10^6 cells/ml in 96-well flat-bottom plates (Costar) in the amastigote medium described above in the presence or absence of drugs. The final volume in each well was 60 μl. Wells containing control parasites included 1% DMSO, the maximum concentration of the vehicle found in drug-containing samples. Plates were incubated at 37° C. in a humid 5% CO2 atmosphere for 72 hours, then 12 μl of the aqueous CellTiter solution (Promega) was added to each well according to the instructions of the manufacturer. Plates were returned to the 37° C. incubator for a further 4-5 hours, then the absorbance of each well was measured at 490 nm using a SpectraMax Plus plate reader (Molecular Devices, Sunnyvale, Calif.). IC50 values for each of the drugs (the concentration of drug that inhibited the growth of parasites by 50% compared to controls) was determined with the aid of the program SoftMax Pro (Molecular Devices). The log dose response equation y=((a-d)/(1+(x/c)^b))+d was used to calculate IC50 values, where x=drug concentration, y=absorbance at 490 nm, a=upper asymptote, b=slope, c=IC50, and d=lower asymptote.
Activity of Syr-E against L. donovani was determined using a cell-free amastigote culture technique that included the uptake of a vital dye (Cell Titer solution, Promega Corporation) as a measure of parasite viability at 72 hours post inoculation. OD values for serial dilutions of Syr-E were transformed as described for the malaria screen (Example VII) to determine IC50 values against Leishmania. The amastigote assay was performed at a pH of 5.5, which is favorable for Syr-E activity.

C. parvum [2] = type: cell-based, C. parvum (bovine isolate); settings: MDBK cells, day 2 post inoculation

C/C=C1\NC(=O)[C@H](Cc2ccccc2)NC(=O)[C@H](CCCNC(=N)N)NC(=O)[C@H](CCN)NC(=O)[C@@H](CCN)NC(=O)[C@@H](CO)NC(=O)[C@@H](NC(=O)C[C@H](O)CCCCCCCCC)COC(=O)[C@H]([C@H](O)CCl)NC(=O)[C@H]([C@H](O)C(=O)O)NC1=O [Syr-E, Syringomycin-E] (X1-S[dS][dDab][Dab]RF[Dhb][Asp(3S-OH)][Thr(4-Cl)]; ester 1-C)
infection percentage vs lower Syr-E concentrations (0.5 to 3.0 μg/ml) (C. parvum [1]; Syr-E 9.0 μg/ml): further reduced the infection percentage significantly (P<0.01)
infection percentage vs non-treated controls (C. parvum [1]; Syr-E 0.5, 1.0, 3.0 and 9.0 μg/ml): significantly (at least P<0.01) reduced the infection percentage
OD Values (L. donovani; Sample 1, Concentration 4.00000 (unit not given)): 0.099
OD Values (L. donovani; Sample 2, Concentration 2.00000 (unit not given)): 0.097
OD Values (L. donovani; Sample 3, Concentration 1.00000 (unit not given)): 0.090
OD Values (L. donovani; Sample 4, Concentration 0.50000 (unit not given)): 0.089
OD Values (L. donovani; Sample 5, Concentration 0.25000 (unit not given)): 0.090
OD Values (L. donovani; Sample 6, Concentration 0.12500 (unit not given)): 0.102
OD Values (L. donovani; Sample 7, Concentration 0.06250 (unit not given)): 0.678
OD Values (L. donovani; Sample 8, Concentration 0.03125 (unit not given)): 0.664
OD Values (L. donovani; Sample 9, Concentration 0.01563 (unit not given)): 0.709
OD Values (L. donovani; Sample 10, Concentration 0.00781 (unit not given)): 0.652
OD Values (L. donovani; Sample 11, Concentration 0.00391 (unit not given)): 0.672
IC50 (L. donovani; amastigote assay): 101.15 ng/mL (≈ 0.0825 µM)
infection percentage compared to the untreated control (C. parvum [2]; Syr-E 5.0 μg/ml): significantly (P<0.05) reduced the infection percentage
inhibition of parasite growth and development (C. parvum [2]; Syr-E 20 μg/ml): 99.5%
